In ChEMBL document CHEMBL4665663, “Anti-atherosclerosis effect of HS donors based on nicotinic acid and chlorfibrate structures” (Bioorg Med Chem, 2019):
Active and inactive are the calls of the source. The rule behind the calls is not given here.

Assays:
RAW264.7 [1] = experiment: Anti-inflammatory activity in mouse RAW264.7 cells assessed as decrease in ox-LDL induced inflammatory reaction by measuring decrease in TNF-alpha production preincubated for 10 mins followed by ox-LDL stimulation and measured after 24 hrs; type: functional, cell-based; conditions: dose microM 10-50, time 10.0 min
RAW264.7 [2] = experiment: Anti-inflammatory activity in mouse RAW264.7 cells assessed as decrease in ox-LDL induced inflammatory reaction by measuring increase in IL-10 production preincubated for 10 mins followed by ox-LDL stimulation and measured after 24 hrs; type: functional, cell-based; conditions: dose microM 10-50, time 10.0 min
RAW264.7 [3] = experiment: Anti-atherosclerotic activity in mouse RAW264.7 cells assessed as decrease in ox-LDL induced AKT protein expression at 10 to 50 uM preincubated for 10 mins followed by ox-LDL stimulation and measured after 24 hrs by Western blot analysis; type: functional, cell-based; conditions: dose microM 10-50, time 10.0 min
RAW264.7 [4] = experiment: Inhibition of macrophage foam cell formation in mouse RAW264.7 cells assessed as reduction in ox-LDL induced red lipid droplets formation at 50 uM preincubated for 10 mins followed by ox-LDL stimulation and measured after 24 hrs by oil red O staining based inverted microscopy analysis; type: functional
HUVEC [5] = experiment: Anti-atherosclerotic activity against ox-LDL induced apoptosis in human HUVEC cells assessed as increase in bcl-2 expression at 50 uM preincubated for 10 mins followed by ox-LDL stimulation and measured after 24 hrs by ELISA; type: functional
RAW264.7 [6] = experiment: (§1) Anti-atherosclerotic activity in mouse RAW264.7 cells assessed as decrease in ox-LDL induced intracellular lipid accumulation by measuring reduction in free cholesterol level at 50 uM preincubated for 10 mins followed by ox-LDL stimulation and measured after 24 hrs by colorimetric method relative to control; type: functional; conditions: RAW264.7, 10 min
HUVEC [7] = experiment: Anti-atherosclerotic activity against ox-LDL induced cell damage in human HUVEC cells assessed as reduction in early apoptotic cells by measuring increase in mitochondrial membrane potential preincubated for 10 mins followed by ox-LDL stimulation and measured after 24 hrs by JC-1 staining based fluorescence microscopic analysis; type: functional
HUVEC [8] = experiment: Anti-atherosclerotic activity against ox-LDL induced cell damage in human HUVEC cells assessed as reduction in nuclear pyknosis and apoptotic bodies formation preincubated for 10 mins followed by ox-LDL stimulation and measured after 24 hrs by Hoechst 33342 staining based fluorescence microscopy; type: functional
HUVEC [9] = experiment: Anti-atherosclerotic activity against ox-LDL induced apoptosis in human HUVEC cells assessed as reduction in Bax expression at 10 to 50 uM preincubated for 10 mins followed by ox-LDL stimulation and measured after 24 hrs by ELISA; type: functional, cell-based; conditions: dose microM 10-50, time 10.0 min
HUVEC [10] = experiment: Cytoprotective activity against ox-LDL induced cell damage in human HUVEC cells assessed as cell viability at 100 uM preincubated for 10 mins followed by ox-LDL stimulation measured after 24 hrs by MTT assay (reference value: 73.1%); type: functional; conditions: read-out: Activity
[11] = Prodrug release in phosphate buffer containing L-cysteine assessed as H2S release by measuring H2S releasing half-life at 60 uM by methylene blue method; type: ADME
HUVEC [12] = experiment: Anti-atherosclerotic activity against ox-LDL induced cell damage in human HUVEC cells assessed as reduction in late apoptotic and death cells preincubated for 10 mins followed by ox-LDL stimulation and measured after 24 hrs by PI staining based fluorescence microscopic analysis; type: functional
HUVEC [13] = experiment: Anti-atherosclerotic activity against ox-LDL induced apoptosis in human HUVEC cells assessed as reduction in caspase-3 expression at 10 to 50 uM preincubated for 10 mins followed by ox-LDL stimulation and measured after 24 hrs by ELISA; type: functional, cell-based; conditions: dose microM 10-50, time 10.0 min
WI-38 = experiment: Cytotoxicity against human WI38 cells assessed as reduction in cell viability after 48 hrs by MTT assay; type: cell-based; conditions: WI-38, 48 h
RAW264.7 [14] = experiment: Antioxidant activity in mouse RAW264.7 cells assessed as reduction in ox-LDL induced ROS accumulation at 10 to 50 uM preincubated for 10 mins followed by ox-LDL stimulation and measured after 24 hrs by DCFH-DA staining based fluorescence microscopic analysis; type: functional, cell-based; conditions: dose microM 10-50, time 10.0 min
H9c2 = experiment: Cytotoxicity against rat H9c2 cells assessed as reduction in cell viability after 48 hrs by MTT assay; type: cell-based; conditions: H9c2, 48 h
RAW264.7 [15] = experiment: as §1, with “total” for “free”; type: functional; conditions: RAW264.7, 10 min
RAW264.7 [16] = experiment: Antioxidant activity in mouse RAW264.7 cells assessed as reduction in ox-LDL induced oxidative stress by measuring decrease in MDA level at 50 uM preincubated for 10 mins followed by ox-LDL stimulation and measured after 24 hrs relative to control; type: functional; conditions: RAW264.7, 10 min
RAW264.7 [17] = experiment: Anti-atherosclerotic activity in mouse RAW264.7 cells assessed as decrease in ox-LDL induced PI3K protein expression at 10 to 50 uM preincubated for 10 mins followed by ox-LDL stimulation and measured after 24 hrs by Western blot analysis; type: functional, cell-based; conditions: dose microM 10-50, time 10.0 min
RAW264.7 [18] = experiment: Anti-atherosclerotic activity in mouse RAW264.7 cells assessed as decrease in ox-LDL induced NFkappaB protein expression at 10 to 50 uM preincubated for 10 mins followed by ox-LDL stimulation and measured after 24 hrs by Western blot analysis; type: functional, cell-based; conditions: dose microM 10-50, time 10.0 min
RAW264.7 [19] = experiment: Anti-atherosclerotic activity in mouse RAW264.7 cells assessed as decrease in ox-LDL induced intracellular lipid accumulation by measuring reduction in CE/TC ratio at 50 uM preincubated for 10 mins followed by ox-LDL stimulation and measured after 24 hrs by colorimetric method relative to control; type: functional; conditions: RAW264.7, 10 min
RAW264.7 [20] = experiment: Inhibition of macrophage foam cell formation in mouse RAW264.7 cells assessed as reduction in ox-LDL induced red lipid droplets formation preincubated for 10 mins followed by ox-LDL stimulation and measured after 24 hrs by oil red O staining based inverted microscopy analysis; type: functional; conditions: dose microM 10-50, time 10.0 min
RAW264.7 [21] = experiment: Cytotoxicity against mouse RAW264.7 cells assessed as reduction in cell viability after 48 hrs by MTT assay; type: cell-based; conditions: RAW264.7, 48 h
HUVEC [22] = experiment: Cytotoxicity against human HUVEC cells assessed as reduction in cell viability at 10 to 100 uM by MTT assay; type: cell-based; conditions: dose 10-100 µM
HUVEC [23] = experiment: Cytotoxicity against human HUVEC cells assessed as reduction in cell viability after 48 hrs by MTT assay; type: cell-based
RAW264.7 [24] = experiment: Antioxidant activity in mouse RAW264.7 cells assessed as reduction in ox-LDL-induced oxidative stress by measuring increase in SOD level at 50 uM preincubated for 10 mins followed by ox-LDL stimulation and measured after 24 hrs relative to control; type: functional; design: scale not given: the % may be the effect or the level left
HUVEC [25] = experiment: Cytoprotective activity against ox-LDL induced cell damage in human HUVEC cells assessed as increase in cell viability at 50 uM preincubated for 10 mins followed by ox-LDL stimulation measured after 24 hrs by MTT assay; type: functional, cell-based

t1/2 [11]: 21.3 min
SMILES: CC(C)(Oc1ccc(Cl)cc1)C(=O)OCCCOC(=O)CCCCC1CCSS1 (configuration not stated)
Activity (RAW264.7 [1]): Dose-dependent effect
Activity (RAW264.7 [2]): Dose-dependent effect
Activity (RAW264.7 [3]): Active
inhibition (RAW264.7 [4]): Active
Activity (HUVEC [5]): 31.9%
inhibition at 50 µM (RAW264.7 [6]): 25.4%
Activity (HUVEC [7]): Active
Activity (HUVEC [8]): Active
Activity (HUVEC [9]): Active
viability at 100 µM (HUVEC [10]): 89.2%
Activity (HUVEC [12]): Active
Activity (HUVEC [13]): Active
IC50 (WI-38): > 800 µM
Activity (RAW264.7 [14]): Active
IC50 (H9c2): > 800 µM
inhibition at 50 µM (RAW264.7 [15]): 52.4%
inhibition at 50 µM (RAW264.7 [16]): 41%
Activity (RAW264.7 [17]): Active
Activity (RAW264.7 [18]): Active
inhibition at 50 µM (RAW264.7 [19]): 30.9%
inhibition (RAW264.7 [20]): Dose-dependent effect
IC50 (RAW264.7 [21]): > 800 µM
Activity (HUVEC [22]): Non-Toxic
IC50 (HUVEC [23]): > 800 µM
Activity (RAW264.7 [24]): 45.4%
Activity (HUVEC [25]): Active
